Read-outs that look alike come from different tables or passages of the source.
Legend:
Type in all cases: binding
[1] = biological target: T1, HeLa cell extract proteins (Homo sapiens, UniProt P10155); conditions: protein TROVE2; HeLa
T1 construct: endogenous in cells; host or cells: HeLa cell extract

[2] = biological target: T2, HeLa cell extract proteins (Homo sapiens, UniProt P48556); conditions: captured protein PSMD8; HeLa
T2 construct: endogenous in cells; host or cells: HeLa cell extract
T2 sequence (P48556 1-350): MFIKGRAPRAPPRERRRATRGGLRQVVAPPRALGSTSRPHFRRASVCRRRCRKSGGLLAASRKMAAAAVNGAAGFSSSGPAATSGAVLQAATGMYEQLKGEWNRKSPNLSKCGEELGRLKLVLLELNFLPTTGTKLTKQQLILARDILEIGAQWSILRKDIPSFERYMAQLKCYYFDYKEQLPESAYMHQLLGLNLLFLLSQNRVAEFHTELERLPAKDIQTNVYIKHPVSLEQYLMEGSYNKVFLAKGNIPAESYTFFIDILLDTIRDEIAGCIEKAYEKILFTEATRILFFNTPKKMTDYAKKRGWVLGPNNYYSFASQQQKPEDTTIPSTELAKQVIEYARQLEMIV

[3] = biological target: T3, HeLa cell extract proteins (Homo sapiens, UniProt O00767); conditions: captured protein SCD; HeLa
T3 construct: endogenous in cells; host or cells: HeLa cell extract
T3 sequence (O00767 1-359): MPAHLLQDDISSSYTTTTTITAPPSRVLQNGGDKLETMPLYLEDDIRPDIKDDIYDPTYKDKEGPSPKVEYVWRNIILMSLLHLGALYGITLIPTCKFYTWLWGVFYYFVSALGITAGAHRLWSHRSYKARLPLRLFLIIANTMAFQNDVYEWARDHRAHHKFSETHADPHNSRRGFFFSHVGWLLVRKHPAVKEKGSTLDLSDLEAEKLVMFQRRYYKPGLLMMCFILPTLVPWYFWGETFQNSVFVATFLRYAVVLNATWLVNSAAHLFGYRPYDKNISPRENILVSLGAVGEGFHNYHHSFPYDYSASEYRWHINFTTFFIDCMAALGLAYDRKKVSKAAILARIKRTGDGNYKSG

[4] = biological target: T4, HeLa cell extract proteins (Homo sapiens, UniProt Q969Y2); conditions: captured protein GTPBP3; HeLa
T4 construct: endogenous in cells; host or cells: HeLa cell extract
T4 sequence (Q969Y2 21-492): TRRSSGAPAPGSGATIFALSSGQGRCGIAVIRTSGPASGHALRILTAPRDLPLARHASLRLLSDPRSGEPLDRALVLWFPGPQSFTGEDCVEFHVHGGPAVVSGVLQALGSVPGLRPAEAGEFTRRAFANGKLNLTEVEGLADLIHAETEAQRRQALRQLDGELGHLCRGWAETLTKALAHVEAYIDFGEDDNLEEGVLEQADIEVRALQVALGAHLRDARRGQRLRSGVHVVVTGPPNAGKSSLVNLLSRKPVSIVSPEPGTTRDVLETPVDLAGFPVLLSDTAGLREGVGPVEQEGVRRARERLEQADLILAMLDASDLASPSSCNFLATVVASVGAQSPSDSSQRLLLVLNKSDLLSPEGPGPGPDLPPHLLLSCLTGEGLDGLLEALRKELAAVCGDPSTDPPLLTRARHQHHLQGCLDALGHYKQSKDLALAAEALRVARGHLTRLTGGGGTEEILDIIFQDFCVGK

[5] = biological target: T5, HeLa cell extract proteins (Homo sapiens, UniProt Q9P2E9)
T5 construct: endogenous in cells; host or cells: HeLa cell extract
T5 sequence (Q9P2E9 1-1410): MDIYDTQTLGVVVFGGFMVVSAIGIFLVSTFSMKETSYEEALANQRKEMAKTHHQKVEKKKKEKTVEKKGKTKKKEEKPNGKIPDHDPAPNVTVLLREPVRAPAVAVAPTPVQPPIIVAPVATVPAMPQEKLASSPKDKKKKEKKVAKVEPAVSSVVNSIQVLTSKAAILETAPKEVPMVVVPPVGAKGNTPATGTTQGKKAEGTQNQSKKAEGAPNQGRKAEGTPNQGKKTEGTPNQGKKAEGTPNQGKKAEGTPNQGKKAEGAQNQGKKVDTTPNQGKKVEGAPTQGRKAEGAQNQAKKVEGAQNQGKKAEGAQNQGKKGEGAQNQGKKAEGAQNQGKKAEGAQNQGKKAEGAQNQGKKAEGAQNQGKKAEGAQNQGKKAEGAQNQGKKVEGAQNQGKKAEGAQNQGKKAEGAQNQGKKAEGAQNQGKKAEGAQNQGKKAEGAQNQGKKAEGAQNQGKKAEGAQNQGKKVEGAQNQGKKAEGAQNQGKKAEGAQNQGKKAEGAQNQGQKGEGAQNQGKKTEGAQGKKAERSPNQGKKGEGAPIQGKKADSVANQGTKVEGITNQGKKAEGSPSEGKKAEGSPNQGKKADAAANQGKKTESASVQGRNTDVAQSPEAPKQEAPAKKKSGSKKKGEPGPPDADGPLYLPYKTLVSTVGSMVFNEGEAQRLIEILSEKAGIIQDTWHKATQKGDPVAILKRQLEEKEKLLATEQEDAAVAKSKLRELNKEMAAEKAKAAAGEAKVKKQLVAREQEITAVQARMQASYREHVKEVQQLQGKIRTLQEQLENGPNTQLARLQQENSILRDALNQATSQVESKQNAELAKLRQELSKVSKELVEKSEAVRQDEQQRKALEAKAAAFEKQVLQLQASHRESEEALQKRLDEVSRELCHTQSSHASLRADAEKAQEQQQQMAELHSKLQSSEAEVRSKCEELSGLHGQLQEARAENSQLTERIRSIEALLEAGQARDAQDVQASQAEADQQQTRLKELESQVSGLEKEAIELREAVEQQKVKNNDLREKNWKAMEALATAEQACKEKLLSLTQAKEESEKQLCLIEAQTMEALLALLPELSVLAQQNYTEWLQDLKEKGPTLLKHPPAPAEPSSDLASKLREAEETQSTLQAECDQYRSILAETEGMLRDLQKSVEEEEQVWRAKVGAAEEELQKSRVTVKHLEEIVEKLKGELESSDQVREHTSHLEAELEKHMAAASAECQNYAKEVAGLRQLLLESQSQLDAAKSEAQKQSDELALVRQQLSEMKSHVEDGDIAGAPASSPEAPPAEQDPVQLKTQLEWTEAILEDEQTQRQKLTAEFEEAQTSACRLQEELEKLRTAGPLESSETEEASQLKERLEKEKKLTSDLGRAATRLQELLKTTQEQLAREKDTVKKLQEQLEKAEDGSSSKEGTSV

[6] = biological target: T6, HeLa cell extract proteins (Homo sapiens, UniProt P20671)
T6 construct: endogenous in cells; host or cells: HeLa cell extract

T1 sequence (P10155 whole entry): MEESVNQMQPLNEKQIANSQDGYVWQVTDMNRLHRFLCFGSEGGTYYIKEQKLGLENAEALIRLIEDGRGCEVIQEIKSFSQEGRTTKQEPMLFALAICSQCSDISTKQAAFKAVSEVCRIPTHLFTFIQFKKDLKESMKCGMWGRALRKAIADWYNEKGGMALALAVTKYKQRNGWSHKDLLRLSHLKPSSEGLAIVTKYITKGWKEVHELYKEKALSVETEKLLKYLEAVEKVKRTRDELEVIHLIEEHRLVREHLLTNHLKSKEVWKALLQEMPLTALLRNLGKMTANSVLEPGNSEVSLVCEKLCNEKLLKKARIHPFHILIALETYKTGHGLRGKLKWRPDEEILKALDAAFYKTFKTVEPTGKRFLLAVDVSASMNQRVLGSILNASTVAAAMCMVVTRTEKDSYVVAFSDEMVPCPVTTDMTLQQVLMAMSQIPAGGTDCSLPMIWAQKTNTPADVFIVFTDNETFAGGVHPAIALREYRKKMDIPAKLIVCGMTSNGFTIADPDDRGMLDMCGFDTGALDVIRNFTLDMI

Structure (SMILES)	fold changes relative to vehicle control [1]	fold changes relative to vehicle control [2]	fold changes relative to vehicle control [3]	fold changes relative to vehicle control [4]	fold changes relative to vehicle control ([5]; HeLa, protein RRBP1)	fold changes relative to vehicle control ([6]; HeLa, protein HIST1H2AD)	fold changes relative to vehicle control [5]	fold changes relative to vehicle control [6]
CCCCCCOc1cccc(Cc2cnc(N)nc2N)c1 [compound 2]	1.49	1.08	0.91	1.05				
NCCOCCOCC(=O)Nc1nc2ncc(CNc3ccc(C(=O)NC(CCC(=O)O)C(=O)O)cc3)nc2c(=O)[nH]1 (centres unmarked) [compound 6]					1.35	1.18		
CCCCCCOc1ccc(Cc2cnc(N)nc2N)cc1 [compound 1]	1.05	0.89	0.92	0.4				
Nc1nc2c(c(=O)[nH]1)N(C=O)C(CNc1ccc(C(=O)N[C@@H](CCC(=O)O)C(=O)O)cc1)CN2 (some centres unmarked) [LEU, leucovorin]					1.08	0.96		
NCCCNc1ccc(C(=O)NC(CCC(=O)O)C(=O)O)cc1 (centres unmarked) [compound 7]					1	0.97		
Nc1nc2[nH]cc(CCc3ccc(C(=O)N[C@@H](CCC(=O)O)C(=O)O)cc3)c2c(=O)[nH]1 [PTX, pemetrexed]							1.03	1.03
Nc1nc2cccc(-c3ccccc3)c2n1Cc1ccc(Cl)c(Cl)c1 [compound 3]	1.27	0.78	1	0.95				

— article PMC6199744, “Development of Chemical Proteomics for the Folateome and Analysis of the Kinetoplastid Folateome” (ACS Infectious Diseases, 2018)
